Measurements as given in US20220363665A1, “QUINOLINE COMPOUNDS FOR THE TREATMENT OF AUTOIMMUNE DISEASE” (Hoffmann-La Roche Inc., priority 2019, published 2022).

Columns and labels:
[1] = LYSA solubility assay; format: physicochemical; conditions: for solubility thermodynamic: thermodynamic from solid
Protocol: LYSA study is used to determine the aqueous solubility of tested compounds. Samples are prepared in duplicate from 10 mM DMSO stock solution. After evaporation of DMSO with a centrifugal vacuum evaporator, compounds are dissolved in a 0.05 M phosphate buffer (pH 6.5), stirred for one hr and shaken for two hrs. After one night, the solutions are filtered using a microtiter filter plate. Then the filtrate and its 1/10 dilution are analyzed by HPLC-UV. In addition, a four-point calibration curve is prepared from the 10 mM stock solutions and used for the solubility determination of the compounds. The results are in μg/mL. In case the percentage of sample measured in solution after evaporation divided by the calculated maximum of sample amount is bigger than 80%, the solubility is reported as bigger than this value.

[2] = target: T1, human TLR8 (Homo sapiens, UniProt Q9NR97); assay: HEK293-Blue-hTLR-8 cells assay (SEAP reporter, R848 stimulation); format: cell-based; conditions: HEK293-Blue-hTLR8 cells, R848, 20 hrs
T1 construct: host or cells: HEK293 (HEK-Blue hTLR8)
T1 sequence (Q9NR97 27-1041): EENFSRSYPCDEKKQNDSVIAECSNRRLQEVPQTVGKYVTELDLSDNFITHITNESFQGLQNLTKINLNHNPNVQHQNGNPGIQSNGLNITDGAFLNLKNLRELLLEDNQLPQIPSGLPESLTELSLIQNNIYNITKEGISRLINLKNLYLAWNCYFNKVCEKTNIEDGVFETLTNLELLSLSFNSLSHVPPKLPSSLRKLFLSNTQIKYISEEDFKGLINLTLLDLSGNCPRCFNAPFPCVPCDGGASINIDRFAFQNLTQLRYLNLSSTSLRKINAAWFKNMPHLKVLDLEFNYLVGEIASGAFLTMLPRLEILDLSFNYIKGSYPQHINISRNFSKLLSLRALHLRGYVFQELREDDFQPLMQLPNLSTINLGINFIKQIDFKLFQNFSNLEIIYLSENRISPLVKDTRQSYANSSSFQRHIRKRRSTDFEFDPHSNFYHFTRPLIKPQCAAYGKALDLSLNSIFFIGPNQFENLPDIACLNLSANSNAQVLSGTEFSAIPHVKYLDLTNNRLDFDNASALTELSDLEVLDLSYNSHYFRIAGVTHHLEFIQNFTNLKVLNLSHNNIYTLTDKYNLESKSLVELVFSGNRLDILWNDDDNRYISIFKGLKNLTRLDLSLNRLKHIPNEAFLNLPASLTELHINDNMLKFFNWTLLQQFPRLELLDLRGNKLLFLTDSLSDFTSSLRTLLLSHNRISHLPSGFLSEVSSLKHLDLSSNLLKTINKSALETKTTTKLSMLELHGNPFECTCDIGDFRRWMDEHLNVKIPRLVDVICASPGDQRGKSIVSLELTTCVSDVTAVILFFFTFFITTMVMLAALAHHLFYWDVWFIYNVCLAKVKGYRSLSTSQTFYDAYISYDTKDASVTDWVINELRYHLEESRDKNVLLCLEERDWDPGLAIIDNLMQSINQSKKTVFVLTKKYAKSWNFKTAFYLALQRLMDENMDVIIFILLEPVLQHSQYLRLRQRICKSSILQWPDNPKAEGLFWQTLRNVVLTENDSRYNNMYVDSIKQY
Protocol: The following tests were carried out in order to determine the activity of the compounds of formula (I) in HEK293-Blue-hTLR-7/8/9 cells assay.
HEK293-Blue-hTLR-8 Cells Assay:
A stable HEK293-Blue-hTLR-8 cell line was purchased from InvivoGen (Cat. #: hkb-htlr8, San Diego, Calif., USA). These cells were originally designed for studying the stimulation of human TLR8 by monitoring the activation of NF-κB. A SEAP (secreted embryonic alkaline phosphatase) reporter gene was placed under the control of the IFN-β minimal promoter fused to five NF-κB and AP-1-binding sites. The SEAP was induced by activating NF-κB and AP-1 via stimulating HEK-Blue hTLR8 cells with TLR8 ligands. Therefore the reporter expression was declined by TLR8 antagonist under the stimulation of a ligand, such as R848, for incubation of 20 hrs. The cell culture supernatant SEAP reporter activity was determined using QUANTI-Blue™ kit (Cat #. rep-qbl, Invivogen, San Diego, Calif., USA) at a wavelength of 640 nm, a detection medium that turns purple or blue in the presence of alkaline phosphatase.
HEK293-Blue-hTLR8 cells were incubated at a density of 250,000˜450,000 cells/mL in a volume of 170 μL in a 96-well plate in Dulbecco's Modified Eagle's medium (DMEM) containing 4.5 g/L glucose, 50 U/mL penicillin, […], […], 2 mM L-glutamine, 10% (v/v) heat-inactivated fetal bovine serum with addition of 20 μL test compound in a serial dilution in the presence of final DMSO at 1% and 10 μL of 60 μM R848 in above DMEM, perform incubation under 37° C. in a CO2 incubator for 20 hrs. Then 20 μL of the supernatant from each well was incubated with 180 μL Quanti-blue substrate solution at 37° C. for 2 hrs and the absorbance was read at 620˜655 nm using a spectrophotometer. The signalling pathway that TLR8 activation leads to downstream NF-KB activation has been widely accepted, and therefore similar reporter assay was modified for evaluating TLR8 antagonist.

[3] = 0.05 M phosphate buffer, pH 6.5, aqueous buffer
[4] = 0.05 M phosphate buffer (pH 6.5)

| solubility thermodynamic [1, 3] [mg/mL] | IC50 [2] [nM] | LYSA [1, 4] [µg/mL] | SMILES | solubility thermodynamic ([1]; aqueous buffer, 0.05 M phosphate buffer (pH 6.5)) [mg/mL] |
| --- | --- | --- | --- | --- |
| > 0.58 | < 3 | – | C[C@@H]1CN(c2ccc(C(F)(F)F)c3ncccc23)C[C@H](C(=O)N[C@@H]2CNC[C@@H]2F)O1 (single isomer, unassigned) [Example 2A] | – |
| > 0.625 | 8 | – | C[C@@H]1CN(c2ccc(C(F)(F)F)c3ncccc23)C[C@H](C(=O)N[C@H]2CNC[C@H]2F)O1 (single isomer, unassigned) [Example 2B] | – |
| > 0.6 | 6 | – | CC(NC(=O)[C@H]1CN(c2ccc(C(F)(F)F)c3ncccc23)C[C@@H](C)O1)C1CN(C)CCO1 (single isomer, unassigned) [Example 35A] | – |
| – | < 3 | >625.0 | CC(NC(=O)[C@H]1CN(c2ccc(C(F)(F)F)c3ncccc23)C[C@@H](C)O1)C1CN(C)CCO1 (single isomer, unassigned) [Example 35B] | – |
| > 0.65 | 16 | – | C[C@@H]1CN(c2ccc(C(F)(F)F)c3ncccc23)C[C@H](C(=O)NC2C3CNCC2COC3)O1 (single isomer, unassigned) [Example 46A] | – |
| – | 55 | >667.0 | C[C@@H]1CN(c2ccc(C(F)(F)F)c3ncccc23)C[C@H](C(=O)NC2C3CNCC2COC3)O1 (single isomer, unassigned) [Example 46B] | – |
| > 0.66 | 22 | – | C[C@@H]1CN(c2ccc(C(F)(F)F)c3ncccc23)C[C@H](C(=O)NC2CC3CNCC32)O1 (single isomer, unassigned) [Example 49A] | – |
| – | 9 | >690.0 | C[C@@H]1CN(c2ccc(C(F)(F)F)c3ncccc23)C[C@H](C(=O)NC2CC3CNCC32)O1 (single isomer, unassigned) [Example 49B] | – |
| – | 5 | >710.0 | C[C@@H]1CN(c2ccc(C(F)(F)F)c3ncccc23)C[C@H](C(=O)NC2CC3CNCC32)O1 (single isomer, unassigned) [Example 49C] | – |
| – | < 3 | – | C[C@H]1C[C@@H](N)CN(c2ccc(C(F)(F)F)c3ncccc23)C1 [Example 1, (3R,5S)-5-methyl-1-[8-(trifluoromethyl)-5-quinolyl]piperidin-3-amine] | – |
| > 0.585 | 6 | – | C[C@@H]1CN(c2ccc(C(F)(F)F)c3ncccc23)C[C@H](C(=O)NC2CNC[C@@H]2F)O1 (stereo partly drawn) [Example 2, cis-(2R,6R)-N-(4-fluoropyrrolidin-3-yl)-6-methyl-4-[8-(trifluoromethyl)-5-quinolyl]morpholine-2-carboxamide] | – |
| > 0.69 | < 3 | – | C[C@@H]1CN(c2ccc(C(F)(F)F)c3ncccc23)C[C@H](C(=O)NCC2CN(C)CCO2)O1 (stereo partly drawn) [Example 3, (2R,6R)-6-methyl-N-[(4-methylmorpholin-2-yl)methyl]-4-[8-(trifluoromethyl)-5-quinolyl]morpholine-2-carboxamide] | – |
| > 0.66 | 10 | – | C[C@@H]1CN(c2ccc(C(F)(F)F)c3ncccc23)C[C@H](C(=O)NCC2CCCCN2C)O1 (stereo partly drawn) [Example 4, (2R,6R)-6-methyl-N-[(1-methyl-2-piperidyl)methyl]-4-[8-(trifluoromethyl)-5-quinolyl]morpholine-2-carboxamide] | – |
| > 0.655 | < 3 | – | C[C@@H]1CN(c2ccc(C(F)(F)F)c3ncccc23)C[C@H](C(=O)NC2CCN(C)CC2)O1 [Example 5, (2R,6R)-6-methyl-N-(1-methyl-4-piperidyl)-4-[8-(trifluoromethyl)-5-quinolyl]morpholine-2-carboxamide] | – |
| > 0.64 | 26 | – | C[C@@H]1CN(c2ccc(C(F)(F)F)c3ncccc23)C[C@H](C(=O)NCC(C)(C)N)O1 [Example 6, (2R,6R)-N-(2-amino-2-methyl-propyl)-6-methyl-4-[8-(trifluoromethyl)-5-quinolyl]morpholine-2-carboxamide] | – |
| > 0.605 | 35 | – | C[C@@H]1CN(c2ccc(C(F)(F)F)c3ncccc23)C[C@H](C(=O)N2CC(N)C2)O1 [Example 7, (3-aminoazetidin-1-yl)-[(2R,6R)-6-methyl-4-[8-(trifluoromethyl)-5-quinolyl]morpholin-2-yl]methanone] | – |
| > 0.68 | < 3 | – | C[C@@H]1CN(c2ccc(C(F)(F)F)c3ncccc23)C[C@H](C(=O)NC2CCCNCC2)O1 (stereo partly drawn) [Example 8, (2R,6R)-N-(azepan-4-yl)-6-methyl-4-[8-(trifluoromethyl)-5-quinolyl]morpholine-2-carboxamide] | – |
| > 0.655 | 29 | – | C[C@@H]1CN(c2ccc(C(F)(F)F)c3ncccc23)C[C@H](C(=O)N2CCC(N)C2)O1 (stereo partly drawn) [Example 10, (3-aminopyrrolidin-1-yl)-[(2R,6R)-6-methyl-4-[8-(trifluoromethyl)-5-quinolyl]morpholin-2-yl]methanone] | – |
| > 0.74 | 62 | – | C[C@@H]1CN(c2ccc(C(F)(F)F)c3ncccc23)C[C@H](C(=O)NCC2COCCN2C)O1 (stereo partly drawn) [Example 11, (2R,6R)-6-methyl-N-[(4-methylmorpholin-3-yl)methyl]-4-[8-(trifluoromethyl)-5-quinolyl]morpholine-2-carboxamide] | – |
| – | 15 | – | Cc1ccc(N2C[C@@H](C)C[C@@H](N)C2)c2cccnc12 [Example 15, (3R,5S)-5-methyl-1-(8-methyl-5-quinolyl)piperidin-3-amine] | – |

| SMILES | solubility thermodynamic [1, 3] [mg/mL] | IC50 [2] [nM] | LYSA [1, 4] [µg/mL] | solubility thermodynamic ([1]; aqueous buffer, 0.05 M phosphate buffer (pH 6.5)) [mg/mL] |
| --- | --- | --- | --- | --- |
| C[C@@H]1CN(c2ccc(C(F)(F)F)c3ncccc23)C[C@H](C(=O)NC2CC3CCCC(C2)N3)O1 (single isomer, unassigned) [Example 34A] | > 0.62 | < 3 | – | – |
| C[C@@H]1CN(c2ccc(C(F)(F)F)c3ncccc23)C[C@H](C(=O)NC2CC3CCCC(C2)N3)O1 (single isomer, unassigned) [Example 34B] | – | 6 | >610.0 | – |
| C[C@@H]1CN(c2ccc(C(F)(F)F)c3ncccc23)C[C@H](C(=O)NC2CC3CCC(C2)N3)O1 (single isomer, unassigned) [Example 47A] | > 0.62 | < 3 | – | – |
| C[C@@H]1CN(c2ccc(C(F)(F)F)c3ncccc23)C[C@H](C(=O)NC2CC3CCC(C2)N3)O1 (single isomer, unassigned) [Example 47B] | – | < 3 | >605.0 | – |
| C[C@@H]1CN(c2ccc(C(F)(F)F)c3ncccc23)C[C@H](C(=O)NC2CN(C)CC23CC3)O1 (stereo partly drawn) [Example 9, (2R,6R)-6-methyl-N-(5-methyl-5-azaspiro[2.4]heptan-7-yl)-4-[8-(trifluoromethyl)-5-quinolyl]morpholine-2-carboxamide] | – | < 3 | – | > 0.685 |
